# According to ChEMBL document CHEMBL1201862, “PubChem BioAssay data set” (2004):
#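 Protocol summary: plate cells (96-well), add compound at 5 concentrations, incubate 48 h, interpolate endpoints linearly. The concentration for 50% growth inhibition is given as GI50.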 Activity calls are given as the source filed them. Rule as the data show it: active = GI50 up to about 1.1 µM and inactive = higher.
# How the values were obtained:
# Assay in all cases: DTP human tumour cell line panel, 48 h
# [1] = test system: A498
# [2] = test system: ACHN
# [3] = test system: CAKI-1
# [4] = test system: CCRF-CEM
# [5] = test system: COLO 205
# [6] = test system: DLD-1
# [7] = test system: EKVX
# [8] = test system: HL-60
# [9] = test system: HOP-62
# [10] = test system: HOP-92
# [11] = test system: HT-29
# [12] = test system: IGROV-1
# [13] = test system: K562
# [14] = test system: KM-20L2
# [15] = test system: KM12
# [16] = test system: LOX IMVI
# [17] = test system: MOLT-4
# [18] = test system: NCI-H226
# [19] = test system: NCI-H23
# [20] = test system: OVCAR-4
# [21] = test system: OVCAR-5
# [22] = test system: OVCAR-8
# [23] = test system: RPMI-8226
# [24] = test system: SF-295
# [25] = test system: SF-539
# [26] = test system: SK-MEL-5
# [27] = test system: SN12C
# [28] = test system: SNB-19
# [29] = test system: SNB-75
# [30] = test system: SR
# [31] = test system: SW-620
# [32] = test system: TK-10
# [33] = test system: UACC-257
# [34] = test system: UACC-62
# [35] = test system: A549
# [36] = test system: DMS-114
# [37] = test system: HCT-116
# [38] = test system: HCT-15
# [39] = test system: LXFL 529
# [40] = test system: M14
# [41] = test system: M19-MEL
# [42] = test system: Malme-3M
# [43] = test system: NCI-H460
# [44] = test system: NCI-H522
# [45] = test system: OVCAR-3
# [46] = test system: SF-268
# [47] = test system: SK-OV-3
# [48] = test system: SNB-78
# [49] = test system: U-251
compound,measurement,setting,value
COC(=O)/C(=N\NC(C)(C)C)C(C(=O)C(=O)Nc1cc(C)ccc1C)c1nc2ccccc2nc1O (stereo not drawn),GI50,[1],> 100 µM (inactive)
same,GI50,[2],> 100 µM (inactive)
same,GI50,[3],> 100 µM (inactive)
same,GI50,[4],> 100 µM (inactive)
same,GI50,[5],> 100 µM (inactive)
same,GI50,[6],> 100 µM (inactive)
same,GI50,[7],> 100 µM (inactive)
same,GI50,[8],> 100 µM (inactive)
same,GI50,[9],> 100 µM (inactive)
same,GI50,[10],> 100 µM (inactive)
same,GI50,[11],> 100 µM (inactive)
same,GI50,[12],> 100 µM (inactive)
same,GI50,[13],> 100 µM (inactive)
same,GI50,[14],> 100 µM (inactive)
same,GI50,[15],> 100 µM (inactive)
same,GI50,[16],> 100 µM (inactive)
same,GI50,[17],> 100 µM (inactive)
same,GI50,[18],> 100 µM (inactive)
same,GI50,[19],> 100 µM (inactive)
same,GI50,[20],> 100 µM (inactive)
same,GI50,[21],> 100 µM (inactive)
same,GI50,[22],> 100 µM (inactive)
same,GI50,[23],> 100 µM (inactive)
same,GI50,[24],> 100 µM (inactive)
same,GI50,[25],> 100 µM (inactive)
same,GI50,[26],> 100 µM (inactive)
same,GI50,[27],> 100 µM (inactive)
same,GI50,[28],> 100 µM (inactive)
same,GI50,[29],> 100 µM (inactive)
same,GI50,[30],> 100 µM (inactive)
same,GI50,[31],> 100 µM (inactive)
same,GI50,[32],> 100 µM (inactive)
same,GI50,[33],> 100 µM (inactive)
same,GI50,[34],> 100 µM (inactive)
O=C(NC(=O)c1cn(CCN2CCNCC2)c(=O)[nH]c1=O)OCc1ccccc1,GI50,[35],> 100 µM (inactive)
same,GI50,[2],> 100 µM (inactive)
same,GI50,[3],> 100 µM (inactive)
same,GI50,[4],> 100 µM (inactive)
same,GI50,[5],> 100 µM (inactive)
same,GI50,[6],> 100 µM (inactive)
same,GI50,[36],63.5 µM (inactive)
same,GI50,[7],> 100 µM (inactive)
same,GI50,[37],> 100 µM (inactive)
same,GI50,[38],> 100 µM
same,GI50,[8],> 100 µM (inactive)
same,GI50,[9],> 100 µM (inactive)
same,GI50,[10],> 100 µM (inactive)
same,GI50,[11],> 100 µM (inactive)
same,GI50,[12],> 10 µM (inactive)
same,GI50,[13],> 100 µM (inactive)
same,GI50,[15],> 100 µM (inactive)
same,GI50,[16],> 100 µM (inactive)
same,GI50,[39],> 100 µM (inactive)
same,GI50,[40],> 100 µM (inactive)
same,GI50,[41],> 100 µM (inactive)
same,GI50,[17],> 100 µM (inactive)
same,GI50,[42],> 100 µM (inactive)
same,GI50,[18],> 100 µM (inactive)
same,GI50,[19],> 100 µM (inactive)
same,GI50,[43],> 100 µM (inactive)
same,GI50,[44],> 100 µM (inactive)
same,GI50,[45],> 100 µM (inactive)
same,GI50,[20],> 100 µM (inactive)
same,GI50,[21],> 100 µM (inactive)
same,GI50,[22],> 100 µM (inactive)
same,GI50,[23],> 100 µM (inactive)
same,GI50,[46],> 100 µM (inactive)
same,GI50,[24],> 100 µM (inactive)
same,GI50,[25],> 100 µM (inactive)
same,GI50,[26],> 100 µM (inactive)
same,GI50,[47],> 100 µM (inactive)
same,GI50,[27],> 100 µM (inactive)
same,GI50,[29],68.9 µM (inactive)
same,GI50,[48],> 100 µM (inactive)
same,GI50,[30],> 100 µM (inactive)
same,GI50,[31],> 100 µM (inactive)
same,GI50,[49],> 100 µM (inactive)
same,GI50,[34],> 100 µM (inactive)
